Source: ChEMBL document CHEMBL1201862, “PubChem BioAssay data set” (2004)
Where a name gives a salt, the structure may show the parent alone.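 Results reflect a 48-hour exposure of cells in 96-well plates to compound at five concentrations. At the GI50, growth is halved.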 The source made the active and inactive calls. No stated cut-off is given here; in the data, active = GI50 up to about 1.1 µM and inactive = higher.

What was measured:
Test in all cases: NCI tumour cell line growth inhibition, 48 h
[1] = tested on: 786-0
[2] = tested on: BT-549
[3] = tested on: CAKI-1
[4] = tested on: DU-145
[5] = tested on: HCT-116
[6] = tested on: HOP-62
[7] = tested on: K562
[8] = tested on: KM12
[9] = tested on: M14
[10] = tested on: OVCAR-5
[11] = tested on: PC-3
[12] = tested on: SN12C
[13] = tested on: SNB-19
[14] = tested on: SNB-75
[15] = tested on: SW-620
[16] = tested on: UACC-257
[17] = tested on: A498
[18] = tested on: LOX IMVI
[19] = tested on: SF-539

Measured: GI50

Cc1nc2c(cc1C(=O)N/N=C/c1ccc([N+](=O)[O-])cc1)c(=O)n(C)c(=O)n2C
inactive: [1] 26.5 µM | [2] 30.5 µM | [3] 51.8 µM | [4] 94.6 µM | [5] 56.4 µM | [6] 16.5 µM | [7] > 100 µM | [8] > 100 µM | [9] > 100 µM | [10] > 100 µM | [11] > 100 µM | [12] > 100 µM | [13] 21.4 µM | [14] > 100 µM | [15] > 100 µM | [16] > 100 µM

O=C1CCCNn2c(nc3ncccc3c2=O)N1
inactive: [1] > 100 µM | [17] > 100 µM | [2] > 100 µM | [3] > 100 µM | [5] > 100 µM | [6] > 100 µM | [7] > 100 µM | [8] 78.7 µM | [18] > 100 µM | [9] > 100 µM | [10] > 100 µM | [11] > 100 µM | [19] > 100 µM | [13] > 100 µM | [14] 30.2 µM | [15] > 100 µM | [16] > 100 µM

CN1[C@@H]2C[C@@H](OC(=O)[C@H](CO)c3ccccc3)C[C@H]1[C@@H]1O[C@@H]12 [SCOPOLAMINE HYDROBROMIDE]
inactive: [1] > 100 µM | [17] > 100 µM | [2] > 100 µM | [3] > 100 µM | [4] > 100 µM | [5] > 100 µM | [6] > 100 µM | [7] > 100 µM | [8] > 100 µM | [18] > 100 µM | [9] > 100 µM | [10] > 100 µM | [11] > 100 µM | [12] > 100 µM | [15] > 100 µM | [16] > 100 µM

CC(=O)c1cccc(Nc2nc3ccccc3c3[nH]c4ccccc4c23)c1
inactive: [1] 3.01 µM | [2] > 100 µM | [3] 3.8 µM | [4] 4.93 µM | [5] 4.28 µM | [6] 7.31 µM | [7] 4.69 µM | [8] 4.66 µM | [9] 8.79 µM | [10] 6.52 µM | [11] 4.65 µM | [19] 4 µM | [12] 3.49 µM | [13] 16.2 µM | [15] 4.81 µM | [16] 9.04 µM

Cc1cn(CCCCOC(=O)NC(CCCNC(N)=O)C(=O)O)c(=O)[nH]c1=O (stereo not given)
inactive: [1] > 100 µM | [2] > 100 µM | [3] > 100 µM | [4] > 100 µM | [5] > 100 µM | [6] > 100 µM | [7] > 100 µM | [8] > 100 µM | [18] > 100 µM | [9] > 100 µM | [10] > 100 µM | [11] > 100 µM | [19] > 100 µM | [12] > 100 µM | [13] > 100 µM | [14] > 100 µM | [15] > 100 µM | [16] > 100 µM

CCN(CC)CCn1c(=O)c2cccnc2n2c3c(=O)n(C)c(=O)n(C)c3nc12
inactive: [1] > 100 µM | [2] > 100 µM | [3] 67.9 µM | [4] > 100 µM | [5] 47.8 µM | [6] > 100 µM | [7] > 100 µM | [8] > 100 µM | [9] > 100 µM | [10] > 100 µM | [11] > 100 µM | [19] 85.1 µM | [12] > 100 µM | [13] > 100 µM | [14] > 100 µM | [15] 76.9 µM | [16] > 100 µM

COc1ccc(Cc2ccccc2C(=O)O)c2ccccc12
inactive: [1] 34.2 µM | [17] 22.8 µM | [2] 39.2 µM | [3] 35.3 µM | [4] 37.5 µM | [5] 20.7 µM | [6] 36.6 µM | [7] 37 µM | [8] 18.7 µM | [18] 23.2 µM | [9] 35.6 µM | [10] 24.3 µM | [11] 30.6 µM | [12] 29.2 µM | [13] 37.3 µM | [14] 34.4 µM | [15] 31.6 µM | [16] 24.7 µM

O=C(O)c1cccc(F)c1C(=O)c1ccc2ccccc2c1
inactive: [1] > 100 µM | [17] > 100 µM | [2] > 100 µM | [3] > 100 µM | [5] > 100 µM | [6] > 100 µM | [7] > 100 µM | [8] > 100 µM | [18] > 100 µM | [9] > 100 µM | [10] > 100 µM | [11] > 100 µM | [19] > 100 µM | [12] > 100 µM | [13] > 100 µM | [14] 73.1 µM | [15] > 100 µM | [16] > 100 µM

CC12CCC([C@H](Nc3cc(C(F)(F)F)cc(C(F)(F)F)c3)C1=O)C2(C)C (stereo not given in full)
inactive: [1] > 100 µM | [2] > 100 µM | [3] > 100 µM | [4] > 100 µM | [5] > 100 µM | [6] 33.7 µM | [7] > 100 µM | [8] > 100 µM | [18] > 100 µM | [9] > 100 µM | [10] > 100 µM | [11] > 100 µM | [19] > 100 µM | [13] > 100 µM | [15] > 100 µM | [16] > 100 µM

CN1CN(c2ccccc2)C2(CCN(Cc3csc4ccccc34)CC2)C1=O
inactive: [1] 19.4 µM | [2] 7.35 µM | [3] 7.45 µM | [4] 49.2 µM | [5] 5.35 µM | [6] 19.6 µM | [7] 5.45 µM | [8] 11.5 µM | [18] 11.8 µM | [9] 13.7 µM | [10] 1.63 µM | [11] 9.27 µM | [19] 15.1 µM | [12] 13.5 µM | [13] 38.4 µM | [14] 23.7 µM | [15] 13.3 µM | [16] 13.2 µM

COc1ccc(-n2sc3ncc(C)cc3c2=O)cc1
inactive: [1] 17.3 µM | [2] 19.4 µM | [4] 21.7 µM | [5] 18.3 µM | [6] 18.2 µM | [7] 39 µM | [8] 16.1 µM | [18] > 10 µM | [9] 18.7 µM | [10] 20.1 µM | [11] 15.6 µM | [12] 16.1 µM | [13] > 100 µM | [15] 33.8 µM

Cc1cc(S(=O)(=O)NC(=C(C#N)C#N)[n+]2ccc(N(C)C)cc2)c([S-])cc1Cl
inactive: [1] > 100 µM | [17] > 100 µM | [2] > 100 µM | [3] > 100 µM | [4] > 100 µM | [5] > 100 µM | [6] > 100 µM | [7] > 100 µM | [8] > 100 µM | [9] > 100 µM | [10] > 100 µM | [11] > 100 µM | [19] > 100 µM | [12] > 100 µM | [13] > 100 µM | [16] > 100 µM
